Where two headings read alike, the source gives them in different places. One block for each compound: values may come before it.
Columns and labels:
[1] = molecular target: T1, BRD2 BD2 (Homo sapiens (Human), UniProt P25440); experiment: FP competitive binding assay (BRD-1F probe); details: for IC50: BRD-1F probe 5 nM, protein 200 nM; for Ki: BRD-1F probe, calculated from IC50
Experimental: (§1) The FAM labeled fluorescent probe (BRD-1F) was synthesized based on a known small-molecule BET bromodomain inhibitor. […] Final BRD-1F concentration was 5 nM. Plates were incubated at room temperature for 1-2 hours with gentle shaking to assure equilibrium.
(§2) Final probe concentration is 5 nM in all assays. […] FP values were measured as described above.

[2] = tested on: leukemia MOLM-13 cell line; experiment: 4-day cell viability assay, CellTiter-Glo; type: cell-based; details: Homo sapiens, MOLM-13, 96 h; 4 days; read-out: Cell Growth Inhibition (IC50 (nM)) MOLM-13 Cell Line (CellTiter-Glo assay)
Experimental: (§3) The effect of representative BET bromodomain inhibitors on cell viability was determined in a 4-day proliferation assay. Cells were maintained in the appropriate culture medium with 10% FBS at 37° C. and an atmosphere of 5% CO2. All the cell lines were used within three months of thawing fresh vials.
(§4) Cells were seeded in 96-well flat bottom (Corning COSTAR, Corning, N.Y., cat#3595) or white opaque cell culture plates (BD Falcon, cat#353296) at a density of 3,000-10,000 cells/well in 75 μl of culture medium. Compounds were serially diluted in the appropriate medium, and 75 μl of the diluted compounds were added to the appropriate wells of the cell plate. After the addition of compounds, the cells were incubated at 37° C. in an atmosphere of 5% CO2 for 4 days. Cell viability was determined using the CellTiter-Glo® Luminescent Cell Viability Assay Kit (Promega, Madison, Wis.) for MOLM-13 cells and WST (2-(2-methoxy-4-nitrophenyl)-3-(4-nitrophenyl)-5-(2,4-disulfophenyl)-2H-tetrazolium, monosodium salt) Cell Counting-8 Kit (Dojindo Molecular Technologies, Inc., Rockville, Md.) for MDA-MB-436 cells according to the manufacturers' instructions.
For the CellTiter-Glo assay, 100 μl of CellTiter-Glo® Reagent was added to each well, and then the plates were incubated at room temperature for 10-20 minutes. The luminescent signal was measured using a Tecan Infinite M1000 multimode microplate reader (Tecan, Morrisville, N.C.). The readings were normalized to the DMSO-treated cells and the IC50 was calculated by nonlinear regression (four parameters sigmoid fitted with variable slope, least squares fit, and no constraint) analysis using the GraphPad Prism 5 software.

[3] = tested on: MOLM-13; experiment: Cell growth inhibition, CellTiter-Glo, acute leukemia cell line; type: cell-based; details: Homo sapiens, MOLM-13, 96 h, 4 days
Experimental: (§5) Cell growth inhibitory activity of representative BET bromodomain inhibitors was determined using CellTiter-Glo® Luminescent Cell Viability Assay. For leukemia cell lines MV-4-11 (ATCC, Manassas, Va.) and MOLM-13 (DSMZ, Germany), cells were seeded in 96-well white opaque cell culture plates at a density of 10,000 cells/well with serially diluted compounds and incubated at 37° C. in an atmosphere of 95% air and 5% CO2 for 4 days. Cell viability was determined using the CellTiter-Glo® Luminescent Cell Viability Assay Kit (Promega, Madison, Wis.) according to the manufacture's instruction. Briefly, a volume of CellTiter-Glo® Reagent equal to the volume of cell culture medium was added to each well, and then the plates were incubated at room temperature for 10-20 minutes. The luminescent signal was measured using a Tecan Infinite M1000 multimode microplate reader (Tecan, Morrisville, N.C.). The half maximal inhibitory concentration (IC50) was calculated using the GraphPad Prism 5 software (GraphPad Software, La Jolla, Calif.).

[4] = tested on: MV-4-11; experiment: as above; type: cell-based; details: Homo sapiens, MV4-11, 96 h, 4 days
Experimental: as §5

[5] = molecular target: T1, BRD2 BD2; experiment: FP competitive binding assay using Cpd. No. 350 as the probe
Experimental: (§6) Fluorescence Polarization (FP) competitive binding studies (see above) were carried out using the FAM labeled fluorescent probe Cpd. No. 350 to determine binding affinities of representative compounds to both BD1 and BD2 of BRD2, BRD3, and BRD4 proteins. Equilibrium dissociation constants (Id) values of Cpd. No. 350 to these six proteins were determined from protein saturation experiments by monitoring the total fluorescence polarization of mixtures composed with the fluorescent probe at a fixed concentration and proteins with increasing concentrations up to full saturation. Serial dilutions of testing protein were mixed with Cpd. No. 350 to a final volume of 200 μl in the assay buffer. […] Plates were incubated at room temperature for 30 minutes with gentle shaking to assure equilibrium. […] Kd values of Cpd.
(§7) The IC50 and Ki values of compounds were determined in a competitive binding experiment as described above. […] FP values were measured as described above. IC50 values were determined by nonlinear regression fitting of the competition curves.

[6] = molecular target: BRD2 BD1 (Homo sapiens (Human), UniProt P25440); experiment: as above
Sequence of BRD2 BD1 (P25440 74-180): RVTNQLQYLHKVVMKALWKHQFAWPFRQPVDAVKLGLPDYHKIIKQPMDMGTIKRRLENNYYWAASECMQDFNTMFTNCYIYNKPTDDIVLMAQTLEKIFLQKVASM
Experimental: as §6, §7

[7] = tested on: MV4;11; experiment: Cell growth inhibition in leukemia cell line; type: cell-based; details: Homo sapiens, MV4-11, cell growth inhibition
[8] = tested on: AML-2; experiment: Cell growth inhibition in leukemia cell line; type: cell-based
Experimental: as §3, §4

[9] = molecular target: BRD4 BD1 (Homo sapiens (Human), UniProt O60885); experiment: FP competitive binding assay using Cpd. No. 350 as the probe
Experimental: as §6, §7

[10] = molecular target: BRD3 BD1 (Homo sapiens (Human), UniProt Q15059); experiment: as above
Sequence of BRD3 BD1 (Q15059 34-140): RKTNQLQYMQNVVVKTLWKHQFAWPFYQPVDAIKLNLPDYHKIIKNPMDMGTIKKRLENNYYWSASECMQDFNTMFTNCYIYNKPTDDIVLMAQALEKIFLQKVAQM
Experimental: as §6, §7

[11] = molecular target: T2, BRD4 BD2 (Homo sapiens (Human), UniProt O60885); experiment: as above
Experimental: as §6, §7

[12] = tested on: K562; experiment: Cell growth inhibition in leukemia cell line; type: cell-based; details: Homo sapiens
[13] = molecular target: BRD3 BD2 (Homo sapiens (Human), UniProt Q15059); experiment: FP competitive binding assay using Cpd. No. 350 as the probe
Sequence of BRD3 BD2 (Q15059 306-415): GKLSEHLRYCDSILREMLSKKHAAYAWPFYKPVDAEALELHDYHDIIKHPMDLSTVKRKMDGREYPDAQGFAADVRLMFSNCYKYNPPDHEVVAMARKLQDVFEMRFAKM
Experimental: as §6, §7

[14] = tested on: prostate VCaP cell line; experiment: Cell growth inhibition, Cell TiterGLO, 4 days; type: cell-based; details: treated 4 days, read-out: VCaP cells (IC50 (nM))
[15] = molecular target: T2, BRD4 BD2; experiment: FP competitive binding assay (BRD-1F probe); details: for IC50: BRD-1F probe 5 nM, protein 200 nM; for Ki: BRD-1F probe, calculated from IC50
Experimental: as §1, §2

[16] = read-out: BRD2 BD2 Ki, FP, Cpd. No. 350 probe […]
[17] = read-out: BRD2 BD1 Ki, FP, Cpd. No. 350 probe […]
[18] = read-out: BRD4 BD1 Ki, FP, Cpd. No. 350 probe […]
[19] = read-out: BRD3 BD1 Ki, FP, Cpd. No. 350 probe […]
[20] = read-out: BRD4 BD2 Ki, FP, Cpd. No. 350 probe […]
[21] = read-out: BRD3 BD2 Ki, FP, Cpd. No. 350 probe […]

T1 sequence (P25440 344-453): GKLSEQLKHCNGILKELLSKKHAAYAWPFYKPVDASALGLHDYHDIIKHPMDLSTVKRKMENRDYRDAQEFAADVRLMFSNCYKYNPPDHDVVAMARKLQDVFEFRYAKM

Compound: COc1cc2c(cc1-c1c(C)noc1C)[nH]c1ccnc(-c3c(C)n[nH]c3C)c12
- IC50 [1]: 92.8 ± 30.8 nM
- Ki [1]: < 10 nM
- IC50 [2]: 311 ± 12 nM
- IC50 [3]: < 500 nM
- IC50 [4]: < 100 nM
- Ki [5, 16]: 57.7 ± 8.1 nM
- Ki [6, 17]: 48.3 ± 1.3 nM

- IC50 [7]: 83 ± 41 nM
- IC50 [8]: 173 ± 89 nM
- Ki [9]: 116 ± 5 nM
- Ki [10]: 38.2 ± 1 nM
- Ki [11]: 134 ± 42 nM
- IC50 [12]: > 2000 nM
- IC50 [2]: 280 ± 35 nM
- Ki [5]: 92.1 ± 3.3 nM
- Ki [6]: 58.4 ± 1 nM
- Ki [13]: 50.9 ± 5.8 nM
Compound: COc1cc2c(cc1-c1c(C)noc1C)[nH]c1ccnc(-c3c(C4CC4)n[nH]c3C)c12 [Cpd. No. 24, 4-(1-(3-cyclopropyl-5-methyl-1H-pyrazol-4-yl)-8-methoxy-5H-pyrido[4,3-b]indol-7-yl)-3,5-dimethylisoxazole]

- IC50 ([14]; Homo sapiens, VCaP, 96 h): 25 nM
Compound: COc1cc2c(cc1-c1c(C)noc1C)[nH]c1nc(C)nc(-c3cc(NCCN(C)C)nc4ccccc34)c12 [Cpd. No. 101]

Compound: COc1cc2c(cc1-c1c(C)noc1C)ncc1[nH]c(=O)n([C@H](C)c3ccccn3)c12 [I-BET151, reference compound]
- IC50 ([14]; Homo sapiens, VCaP, 96 h): 862 nM

Compound: COc1cc2c(cc1-c1c(C)noc1C)[nH]c1nc(C)nc(-c3ccnc4ccccc34)c12 [Cpd. No. 73]
- IC50 ([14]; Homo sapiens, VCaP, 96 h): 156 nM
- Ki [9, 18]: 35.3 nM
- Ki [10, 19]: 10.2 nM
- Ki [11, 20]: 7.8 nM
- Ki [5, 16]: 8.7 nM
- Ki [6, 17]: 15.5 nM
- Ki [13, 21]: 2.6 nM

Compound: COc1cc2c(cc1-c1c(C)noc1C)[nH]c1ccnc(-c3cn[nH]c3)c12
- IC50 [15]: 608 ± 244 nM
- Ki [15]: 114 ± 87 nM
- IC50 [1]: 286 ± 125 nM
- Ki [1]: 42.3 ± 32 nM
- IC50 [7]: 1070 ± 195 nM
- IC50 [8]: 217 ± 61 nM
- Ki [9, 18]: 247 ± 29 nM
- Ki [10, 19]: 151 ± 20 nM
- Ki [11, 20]: 201 ± 5 nM
- IC50 [12]: > 2000 nM
- IC50 [2]: 1040 ± 158 nM
- Ki [5, 16]: 89.7 ± 6.4 nM
- Ki [6, 17]: 138 ± 8 nM
- Ki [13, 21]: 48.7 ± 3.3 nM

Compound: COc1cc2c(cc1-c1c(C)noc1C)[nH]c1ccncc12 [RX-7]
- IC50 [15]: 2900 nM
- Ki [15]: 850 nM
- IC50 [1]: 1350 ± 212 nM
- Ki [1]: 366 ± 82 nM
- Ki [9, 18]: 1640 ± 71 nM
- Ki [10, 19]: 730 ± 146 nM
- Ki [11, 20]: 824 ± 25 nM
- Ki [5, 16]: 498 ± 11 nM
- Ki [6, 17]: 650 ± 125 nM
- Ki [13, 21]: 241 ± 6 nM

Compound: COc1cc2c(cc1-c1c(C)noc1C)[nH]c1ccncc12 [Cpd. No. 1, 4-(8-methoxy-5H-pyrido[4,3-b]indol-7-yl)-3,5-dimethylisoxazole]
- IC50 [7]: 178 ± 114 nM
- IC50 [8]: 148 ± 64 nM
- Ki [9]: 47.8 ± 1 nM
- Ki [10]: 14.7 ± 1 nM
- Ki [11]: 70.1 ± 2 nM
- IC50 [12]: > 2000 nM
- IC50 [2]: 550 ± 303 nM
- Ki [5]: 34.5 ± 2.1 nM
- Ki [6]: 31.6 ± 8.2 nM
- Ki [13]: 14.3 ± 0.5 nM

- IC50 [3]: < 500 nM
- IC50 [4]: < 100 nM
Compound: COc1cc2c(cc1-c1c(C)noc1C)[nH]c1ncnc(-c3c(C)n[nH]c3C)c12 [Cpd. No. 38]

- IC50 ([14]; Homo sapiens, VCaP, 96 h): 20 nM
Compound: COc1cc2c(cc1-c1c(C)noc1C)[nH]c1nc(C)nc(-c3ccnc4ccc(Cl)cc34)c12 [Cpd. No. 90]

Compound: Cc1sc2c(c1C)C(c1ccc(Cl)cc1)=N[C@@H](CC(=O)OC(C)(C)C)c1nnc(C)n1-2 [JQ1, reference compound]
- IC50 [14]: 48 nM

- IC50 [15]: 514 nM
- Ki [15]: 83.4 nM
- IC50 [1]: 255 ± 114 nM
- Ki [1]: 34.9 ± 21.2 nM
Compound: COc1cc2c(cc1-c1c(C)noc1C)[nH]c1ccnc(-c3ccccc3)c12

- IC50 ([14]; Homo sapiens, VCaP, 96 h): 500 nM
Compound: CCNC(=O)C[C@@H]1N=C(c2ccc(Cl)cc2)c2cc(OC)ccc2-n2c(C)nnc21 [I-BET762, reference compound]

- IC50 [15]: 3670 nM
- Ki [15]: 775 nM
- IC50 [1]: 3200 nM
- Ki [1]: 1200 nM
Compound: COc1cc2c(cc1-c1c(C)n[nH]c1C)[nH]c1ccnc(-c3c(C)n[nH]c3C)c12 [Cpd. No. 34, 1,7-bis(3,5-dimethyl-1H-pyrazol-4-yl)-8-methoxy-5H-pyrido[4,3-b]indole]

- IC50 [15]: 873 nM
- Ki [15]: 232 nM
- IC50 [1]: 349 nM
- Ki [1]: 57.4 nM
Compound: COc1cc2c(cc1-c1c(C)noc1C)[nH]c1ccnc(-c3cccnc3)c12

— patent publication US9675697B2 (THE REGENTS OF THE UNIVERSITY OF MICHIGAN, priority 2013, dated 2017)
